# Experimental data as given in the supplement of paper PMC4862054.
# How the values were obtained:
# Settings in all cases: incubation time: 72 h
# [1] = tested on: MDA-MB-231; assay: normalised response (% of control), CellTox Green; higher = less cell death (100 = DMSO, 0 = benzethonium chloride kill control)
# How it was run: (§1)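 Breast cancer cell lines were exposed for 72 h in 384-well plates to compound at 5 concentrations, 10-fold apart, covering a 10,000-fold range fixed for each compound. Plates were read for CellTox Green fluorescence and CellTiter-Glo luminescence and normalised to 0.1 % DMSO (100) and a positive kill control (0). Each value is the normalised signal at one concentration of the series.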
# [2] = tested on: CAL-51; assay: as above
# How it was run: as §1
# [3] = tested on: HCC1143; assay: as above
# How it was run: as §1
# [4] = tested on: CAL-85-1; assay: as above
# How it was run: as §1
# [5] = tested on: DU-4475; assay: as above
# How it was run: as §1
# [6] = tested on: BT-474; assay: as above
# How it was run: as §1
# [7] = tested on: CAL-120; assay: as above
# How it was run: as §1
# [8] = tested on: MDA-MB-436; assay: as above
# How it was run: as §1
# [9] = tested on: HCC1599; assay: as above
# How it was run: as §1
# [10] = tested on: MCF-10A; assay: as above
# How it was run: as §1
# [11] = tested on: CAL-148; assay: as above
# How it was run: as §1
# [12] = tested on: BT-549; assay: as above
# How it was run: as §1
# [13] = tested on: Hs578T; assay: as above
# How it was run: as §1
# [14] = tested on: MDA-MB-453; assay: as above
# How it was run: as §1
# [15] = tested on: HCC1937; assay: as above
# How it was run: as §1
# [16] = tested on: HDQ-P1; assay: as above
# How it was run: as §1
# [17] = tested on: MFM-223; assay: as above
# How it was run: as §1
# [18] = tested on: MDA-MB-231; assay: normalised response (% of control), CellTiter-Glo; higher = more viable cells (100 = DMSO, 0 = benzethonium chloride kill control)
# Method: (§2)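 DSRT, 72 h incubation, CellTox Green / CellTiter-Glo readout. Signal is normalised to DMSO and benzethonium chloride controls. Value is the normalised response at dose 3.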
# [19] = tested on: CAL-51; assay: as above
# Method: as §2
# [20] = tested on: HCC1143; assay: as above
# Method: as §2
# [21] = tested on: CAL-85-1; assay: as above
# Method: as §2
# [22] = tested on: DU-4475; assay: as above
# Method: as §2
# [23] = tested on: BT-474; assay: as above
# Method: as §2
# [24] = tested on: CAL-120; assay: as above
# Method: as §2
# [25] = tested on: MDA-MB-436; assay: as above
# Method: as §2
# [26] = tested on: HCC1599; assay: as above
# Method: as §2
# [27] = tested on: MCF-10A; assay: as above
# Method: as §2
# [28] = tested on: SK-BR-3; assay: as above
# Method: as §2
# [29] = tested on: CAL-148; assay: as above
# Method: as §2
# [30] = tested on: BT-549; assay: as above
# Method: as §2
# [31] = tested on: Hs578T; assay: as above
# Method: as §2
# [32] = tested on: MDA-MB-453; assay: as above
# Method: as §2
# [33] = tested on: HCC1937; assay: as above
# Method: as §2
# [34] = tested on: HDQ-P1; assay: as above
# Method: as §2
# [35] = tested on: MDA-MB-468; assay: as above
# Method: as §2
# [36] = tested on: MFM-223; assay: as above
# Method: as §2
# [37] = tested on: MDA-MB-468; assay: normalised response (% of control), CellTox Green; higher = less cell death (100 = DMSO, 0 = benzethonium chloride kill control)
# How it was run: as §1
Structure (SMILES),normalised response [1],normalised response [2],normalised response [3],normalised response [4],normalised response [5],normalised response [6],normalised response [7],normalised response [8],normalised response [9],normalised response [10],normalised response [11],normalised response [12],normalised response [13],normalised response [14],normalised response [15],normalised response [16],normalised response [17],normalised response [18],normalised response [19],normalised response [20],normalised response [21],normalised response [22],normalised response [23],normalised response [24],normalised response [25],normalised response [26],normalised response [27],normalised response [28],normalised response [29],normalised response [30],normalised response [31],normalised response [32],normalised response [33],normalised response [34],normalised response [35],normalised response [36],normalised response [37]
Nc1ncnc2c1c(COc1cccc(Cl)c1)nn2C1CCOCC1 (100 nM),119%,101%,95.8%,108%,109%,102%,103%,102%,114%,109%,107%,98.5%,51.6%,111%,112%,102%,103%,108%,84.5%,104%,103%,100%,102%,101%,104%,102%,110%,109%,109%,98.8%,78.4%,93.5%,95.5%,101%,102%,105%,
CN(C)CCN1C(=O)c2cccc3cc(N)cc(c23)C1=O [Amonafide] (100 nM),81.1%,95.2%,114%,101%,97.2%,98.5%,97.8%,80.1%,115%,103%,99.3%,106%,,104%,104%,81.9%,106%,111%,79.1%,100%,93.1%,99.2%,106%,100%,99.5%,74.9%,99.5%,95.3%,93.8%,106%,100%,89.3%,98.8%,102%,96.8%,101%,144%
CC(C)(C#N)c1cc(Cn2cncn2)cc(C(C)(C)C#N)c1 [Anastrozole] (100 nM),106%,73.3%,102%,101%,103%,102%,99.9%,93.3%,102%,74.4%,106%,103%,87%,102%,99.9%,97.9%,100%,97.4%,67.3%,97%,98.6%,107%,104%,101%,104%,100%,112%,106%,98.8%,104%,113%,105%,95.3%,102%,91.3%,104%,
O=C(O)CCCc1ccc(N(CCCl)CCCl)cc1 [Chlorambucil] (100 nM),102%,85.3%,94.9%,94.9%,102%,101%,92.9%,84.8%,99%,101%,,101%,105%,102%,98.2%,107%,98.8%,106%,79.5%,103%,105%,104%,98.7%,96.6%,99.3%,100%,99.9%,106%,107%,108%,102%,104%,94%,103%,106%,98.6%,118%
c1ccc([C@H]2CN3CCSC3=N2)cc1 [Levamisole] (100 nM),,112%,93.9%,107%,101%,100%,102%,99.2%,104%,87.5%,103%,99.2%,76.6%,101%,76.8%,102%,106%,103%,101%,102%,103%,107%,106%,104%,107%,106%,110%,108%,114%,98.3%,110%,110%,96.8%,100%,113%,113%,120%
Nc1nc(OCc2cc(Br)cs2)c2[nH]cnc2n1 [Lomeguatrib] (100 nM),110%,92.9%,96.5%,103%,101%,102%,100%,98.3%,100%,97.3%,63.5%,95.1%,100%,106%,104%,,103%,98.2%,84.8%,106%,101%,101%,98.8%,99.2%,102%,111%,106%,106%,102%,99.2%,99%,95.2%,101%,106%,95.4%,100%,134%
CNNCc1ccc(C(=O)NC(C)C)cc1 [Procarbazine] (100 nM),119%,112%,99.4%,99.7%,107%,102%,103%,103%,98.7%,98.5%,102%,102%,63.4%,106%,94.1%,,,105%,102%,108%,101%,101%,100%,106%,95.4%,107%,109%,105%,104%,109%,104%,104%,103%,105%,99.4%,103%,95.5%
CN1CCN(CCOc2cc(OC3CCOCC3)c3c(Nc4c(Cl)ccc5c4OCO5)ncnc3c2)CC1 [Saracatinib] (100 nM),90.6%,90.7%,56.8%,88.8%,102%,99.5%,99%,97%,94.3%,89.4%,84.5%,,,106%,88.4%,90.7%,,78.7%,106%,96.1%,102%,93.9%,84.4%,95.1%,95.1%,111%,78.2%,109%,98.5%,104%,104%,106%,94.2%,93.5%,95.5%,94.6%,
Cn1cncc1[C@@](N)(c1ccc(Cl)cc1)c1ccc2c(c1)c(-c1cccc(Cl)c1)cc(=O)n2C [Tipifarnib] (100 nM),,63.4%,104%,108%,98.1%,98.2%,90.6%,20.8%,107%,99.7%,92.2%,107%,57.8%,98.7%,99.6%,103%,99.9%,92.7%,72%,88.8%,104%,77.8%,87.6%,89.3%,71.6%,91.5%,83.9%,69.3%,85.3%,86.9%,83.1%,75.7%,80.8%,81.2%,74.9%,82.6%,118%
